Test results published in US20250304587A1, “WEE1 INHIBITOR, PREPARATION THEREFOR AND USE THEREOF” (JIANGSU TASLY DIYI PHARMACEUTICAL CO., LTD., priority 2022, published 2025).
pIC50: −log10 of the molar value.

How the values were obtained:
HT-29 cells = experiment: Cell Titer-Glo anti-proliferation, HT-29 cells; assay type: cell-based, human; details: 3 days, read-out: Anti-proliferative activity HT-29 (IC50 class)
Procedure: (§1) A. Evaluation of the Anti-Proliferative Effect of Compounds on BxPC3, HT-29 and OVCAR-3 Cells by the Cell Titer-Glo Method
(§2) Compound solutions of different concentration gradients were prepared. […] The cell growth group without compound was used as a positive control (maximum signal control) and the medium was used as a negative control (minimum signal control), while ensuring that the final level of DMSO in each reaction well was 0.2%. After removing the medium from the 384-well plate, 25 μl of the configured compound at different concentrations was transferred into the well plate and the compound and cells were incubated in the cell incubator at 37° C. with 5% CO2 for 3 days.
(§3) The 384-well plates were removed from the cell incubator and allowed to equilibrate for 1 h to room temperature. 25 μl of Cell Titer-Glo assay was added to each well, lysed on a shaker for 2 min and then read out (Luminescence) using a BMG PHERAStar after 10 min incubation. Calculate the inhibition rate from the luminescence signal.
(§4) to calculate the rate of inhibition of the cells by different concentrations of the compounds. The IC50 of the compound on cell activity inhibition was calculated by fitting a log(inhibitor) vs. response-Variable slope model to GraphPad Prism 6. The fitted equation was: Y=Bottom+(Top-Bottom)/(1+10^((Log IC50−X)*HillSlope)), where Y represents the rate of inhibition and X represents the concentration of the known compound after Log.

OVCAR-3 cells = experiment: Cell Titer-Glo anti-proliferation, OVCAR-3 cells; assay type: cell-based; details: 3 days, read-out: Anti-proliferative activity OVCAR-3 (IC50 class)
Procedure: as §1, §2, §3, §4

BxPC3 cells = experiment: Cell Titer-Glo anti-proliferation, BxPC3 cells; assay type: cell-based, human; details: 3 days, read-out: Anti-proliferative activity BxPC3 (IC50 class)
Procedure: as §1, §2, §3, §4

Row | SMILES | pIC50 (HT-29 cells) | pIC50 (OVCAR-3 cells) | pIC50 (BxPC3 cells)
1 | C=CCn1c(=O)c2cnc(Nc3ccc(N4C[C@@H]5C[C@H]4CN5C)cc3)nc2n1-c1ccc2c(n1)[C@](C)(O)C1(CC2)CC1 (single isomer, unassigned) [Compound 45b] | 5.70 to 6.00 | 5.70 to 6.00 | 5.70 to 6.00
2 | C=CCn1c(=O)c2cnc(Nc3ccc(N4CCN(C(C)C)CC4)cc3)nc2n1-c1ccc2c(n1)C(O)C1(CC2)CC1 (single isomer, unassigned) [Compound 57a] | 5.70 to 6.00 | 5.30 to 5.70 | 5.30 to 5.70
3 | C=CCn1c(=O)c2cnc(Nc3ccc4c(c3)CN(C)CC4(C)C)nc2n1-c1ccc2c(n1)C(C)(O)C1(CC1)C2 (racemic) [Compound 9] | 5.70 to 6.00 | 6.00 to 7.00 | < 5.00
4 | C=CCn1c(=O)c2cnc(Nc3ccc(N4C[C@H]5C[C@@H]4CN5C)cc3)nc2n1-c1ccc2c(n1)C(O)(CC)C1(CC1)C2 (stereo partly drawn) [Compound 26] | 5.70 to 6.00 | 5.30 to 5.70 | 5.30 to 5.70
5 | C=CCn1c(=O)c2cnc(Nc3ccc(N4CC5CCC(C4)N5C)cc3)nc2n1-c1ccc2c(n1)C(O)(CC)C1(CC1)C2 (racemic) [Compound 25] | 5.70 to 6.00 | 6.00 to 7.00 | 5.70 to 6.00
6 | C=CCn1c(=O)c2cnc(Nc3ccc(N4CCN(C)CC4)c(F)c3)nc2n1-c1ccc2c(n1)C(O)(CC)C1(CC1)C2 (stereo not drawn) [Compound 33] | 5.70 to 6.00 | 5.30 to 5.70 | 5.30 to 5.70
7 | C=CCn1c(=O)c2cnc(Nc3ccc(N4CCC5(CCN(C)CC5)CC4)cc3)nc2n1-c1ccc2c(n1)C(O)(CC)C1(CC2)CC1 (stereo not drawn) [Compound 69b] | 5.70 to 6.00 | 5.70 to 6.00 | 5.70 to 6.00
8 | C=CCn1c(=O)c2cnc(Nc3ccc(N4CCN(C)[C@H](C)C4)cc3)nc2n1-c1ccc2c(n1)[C@@H](O)C1(CC2)CC1 (single isomer, unassigned) [Compound 68a] | 5.70 to 6.00 | 5.30 to 5.70 | 5.30 to 5.70
9 | C=CCn1c(=O)c2cnc(Nc3ccc(N4CC5CC(C4)N5C)c(OC)c3)nc2n1-c1ccc2c(n1)C(O)C1(CC2)CC1 (racemic) [Compound 49] | 5.30 to 5.70 | 5.30 to 5.70 | 5.30 to 5.70
10 | C=CCn1c(=O)c2cnc(Nc3ccc(N4CCC(N(C)C)CC4)cc3)nc2n1-c1ccc2c(n1)[C@](O)(C(F)(F)F)C1(CC2)CC1 (single isomer, unassigned) [Compound 54a] | 5.70 to 6.00 | 5.30 to 5.70 | 5.30 to 5.70
11 | C=CCn1c(=O)c2cnc(Nc3ccc(N4CCN(C)CC4)cc3)nc2n1-c1ccc2c(n1)C(C)(O)C1(CC1)C2 (single isomer, unassigned) [Compound 3a] | 5.70 to 6.00 | 5.70 to 6.00 | 5.70 to 6.00
12 | C=CCn1c(=O)c2cnc(Nc3ccc(N4CCN(C)CC4)cc3)nc2n1-c1ccc2c(n1)[C@](O)(C(F)(F)F)C1(CC2)CC1 (single isomer, unassigned) [Compound 53a] | 5.70 to 6.00 | 5.30 to 5.70 | 5.30 to 5.70
13 | C=CCn1c(=O)c2cnc(Nc3ccc(N4CC5CC(C4)N5C(C)C)cc3)nc2n1-c1ccc2c(n1)[C@](C)(O)C1(CC2)CC1 (single isomer, unassigned) [Compound 35a] | 6.00 to 7.00 | 6.00 to 7.00 | 6.00 to 7.00
14 | C=CCn1c(=O)c2cnc(Nc3ccc(N4C[C@H]5CN(C)C[C@H]5C4)cc3)nc2n1-c1ccc2c(n1)C(C)(O)C1(CC2)CC1 (mixture of isomers) [Compound 43] | 6.00 to 7.00 | 6.00 to 7.00 | 6.00 to 7.00
15 | C=CCn1c(=O)c2cnc(Nc3ccc(N4CCC(N(C)C)CC4)cc3)nc2n1-c1ccc2c(n1)C(O)C1(CC2)CC1 (stereo not drawn) [Compound 66b] | 6.00 to 7.00 | 5.70 to 6.00 | 6.00 to 7.00
16 | C=CCn1c(=O)c2cnc(Nc3ccc(N4CC5CN(C)CC5C4)cc3)nc2n1-c1ccc2c(n1)C(O)(C(F)(F)F)C1(CC2)CC1 (single isomer, unassigned) [Compound 58a] | 6.00 to 7.00 | 5.30 to 5.70 | 5.70 to 6.00
17 | C=CCn1c(=O)c2cnc(Nc3ccc(N4CCC(N(C)C)CC4)cc3)nc2n1-c1ccc2c(n1)C(O)C1(CC2)CC1 (single isomer, unassigned) [Compound 66a] | 5.70 to 6.00 | 5.30 to 5.70 | 5.30 to 5.70
18 | C=CCn1c(=O)c2cnc(Nc3ccc(N4CCC(N(C)C)CC4)cc3)nc2n1-c1ccc2c(n1)C(C)(O)C1(CC2)CC1 (stereo not drawn) [Compound 65b] | 6.00 to 7.00 | 6.00 to 7.00 | 6.00 to 7.00
19 | C=CCn1c(=O)c2cnc(Nc3ccc(N4CCC(N(C)C)C(F)C4)cc3)nc2n1-c1ccc2c(n1)C(C)(O)C1(CC1)C2 (single isomer, unassigned) [Compound 20a] | 5.70 to 6.00 | 5.70 to 6.00 | 5.70 to 6.00
20 | C=CCn1c(=O)c2cnc(Nc3ccc(N4CCC(N5CCN(C)CC5)C(F)C4)cc3)nc2n1-c1ccc2c(n1)C(C)(O)C1(CC1)C2 (mixture of isomers) [Compound 14] | 6.00 to 7.00 | 6.00 to 7.00 | 5.70 to 6.00

Results, then the compound that gave them:

Row | pIC50 (HT-29 cells) | pIC50 (OVCAR-3 cells) | pIC50 (BxPC3 cells) | SMILES
21 | 6.00 to 7.00 | 6.00 to 7.00 | 6.00 to 7.00 | C=CCn1c(=O)c2cnc(Nc3ccc(N4CCC(N(C)C)CC4)c(C)c3)nc2n1-c1ccc2c(n1)[C@](C)(O)C1(CC1)C2 (single isomer, unassigned) [Compound 42a]
22 | 6.00 to 7.00 | 6.00 to 7.00 | 6.00 to 7.00 | C=CCn1c(=O)c2cnc(Nc3ccc(N4CCC5(CCN(C)CC5)CC4)c(C)c3)nc2n1-c1ccc2c(n1)C(O)C1(CC2)CC1 (single isomer, unassigned) [Compound 61a]
23 | 6.00 to 7.00 | 6.00 to 7.00 | 6.00 to 7.00 | C=CCn1c(=O)c2cnc(Nc3ccc(N4CCN(C)CC4)c(C)c3)nc2n1-c1ccc2c(n1)[C@](C)(O)C1(CC2)CC1 (single isomer, unassigned) [Compound 23b]
24 | 6.00 to 7.00 | 6.00 to 7.00 | 5.70 to 6.00 | C=CCn1c(=O)c2cnc(Nc3ccc(N4CC5CC(C4)N5C4CCC4)cc3)nc2n1-c1ccc2c(n1)C(O)(CC)C1(CC1)C2 (single isomer, unassigned) [Compound 22a]
25 | 6.00 to 7.00 | 6.00 to 7.00 | 6.00 to 7.00 | C=CCn1c(=O)c2cnc(Nc3ccc(N4CCN(C)C(C)C4)cc3)nc2n1-c1ccc2c(n1)C(O)C1(CC2)CC1 (stereo not drawn) [Compound 68b]
26 | 6.00 to 7.00 | 6.00 to 7.00 | 6.00 to 7.00 | C=CCn1c(=O)c2cnc(Nc3ccc(N4CCC(N(C)C)C(F)C4)cc3)nc2n1-c1ccc2c(n1)C(C)(O)C1(CC2)CC1 (single isomer, unassigned) [Compound 60b]
27 | 6.00 to 7.00 | 6.00 to 7.00 | 6.00 to 7.00 | C=CCn1c(=O)c2cnc(Nc3ccc(N4CC5CC(C4)N5CCF)cc3)nc2n1-c1ccc2c(n1)[C@](C)(O)C1(CC2)CC1 (single isomer, unassigned) [Compound 59a]
28 | 6.00 to 7.00 | 5.70 to 6.00 | 5.70 to 6.00 | C=CCn1c(=O)c2cnc(Nc3ccc(N4CCC5(CCN(C)CC5)CC4)cc3)nc2n1-c1ccc2c(n1)[C@@H](O)C1(CC2)CC1 [Compound 38a]
29 | 6.00 to 7.00 | 6.00 to 7.00 | 6.00 to 7.00 | C=CCn1c(=O)c2cnc(Nc3ccc(N4CCC(N(C)C)CC4)c(C)c3)nc2n1-c1ccc2c(n1)[C@@H](O)C1(CC2)CC1 (single isomer, unassigned) [Compound 48a]
30 | 6.00 to 7.00 | 6.00 to 7.00 | 6.00 to 7.00 | C=CCn1c(=O)c2cnc(Nc3ccc(N4CCC(N(C)C)CC4)cc3)nc2n1-c1ccc2c(n1)C(O)(C(F)(F)F)C1(CC2)CC1 (stereo not drawn) [Compound 54b]
31 | 6.00 to 7.00 | 6.00 to 7.00 | 6.00 to 7.00 | C=CCn1c(=O)c2cnc(Nc3ccc(N4CCC5(CCN(C)CC5)CC4)c(F)c3)nc2n1-c1ccc2c(n1)C(O)C1(CC2)CC1 (stereo not drawn) [Compound 62b]
32 | 6.00 to 7.00 | 5.70 to 6.00 | 5.70 to 6.00 | C=CCn1c(=O)c2cnc(Nc3ccc(N4C[C@H]5CN(C)C[C@H]5C4)cc3)nc2n1-c1ccc2c(n1)[C@H](O)C1(CC2)CC1 (single isomer, unassigned) [Compound 63b]
33 | 6.00 to 7.00 | 6.00 to 7.00 | 6.00 to 7.00 | C=CCn1c(=O)c2cnc(Nc3ccc(N4CC5CC(C4)N5C(C)C)cc3)nc2n1-c1ccc2c(n1)[C@](O)(CC)C1(CC2)CC1 (single isomer, unassigned) [Compound 36b]
34 | 6.00 to 7.00 | 6.00 to 7.00 | 6.00 to 7.00 | C=CCn1c(=O)c2cnc(Nc3ccc(N4CC5CC(C4)N5C(C)C)cc3)nc2n1-c1ccc2c(n1)C(O)C1(CC2)CC1 (single isomer, unassigned) [Compound 39a]
35 | 6.00 to 7.00 | 5.70 to 6.00 | 5.70 to 6.00 | C=CCn1c(=O)c2cnc(Nc3ccc(N4CC5CC(C4)N5CCF)cc3)nc2n1-c1ccc2c(n1)C(C)(O)C1(CC2)CC1 (stereo not drawn) [Compound 59b]
36 | 6.00 to 7.00 | 6.00 to 7.00 | 6.00 to 7.00 | C=CCn1c(=O)c2cnc(Nc3ccc(N4CC5CC(C4)N5C(C)C)cc3)nc2n1-c1ccc2c(n1)[C@@](C)(O)C1(CC2)CC1 (single isomer, unassigned) [Compound 35b]
37 | 6.00 to 7.00 | 6.00 to 7.00 | 6.00 to 7.00 | C=CCn1c(=O)c2cnc(Nc3ccc(N4CC5CN(C)CC5C4)cc3)nc2n1-c1ccc2c(n1)C(C)(O)C1(CC2)CC1 (single isomer, unassigned) [Compound 43a]
